Measurements from patent US10759783B2, “Biaryl inhibitors of Bruton'S tyrosine kinase” (BIOGEN MA INC., priority 2013, dated 2020).

Tests used:
[1] = molecular target: BTK (phospho-BTK) in human whole blood (Homo sapiens, UniProt Q06187); experiment: In vitro PD assay in human whole blood (pBTK assay)
BTK enzyme = molecular target: T1, BTK enzyme (Homo sapiens, UniProt Q06187); experiment: In vitro BTK kinase assay: BTK-POLYGAT-LS assay; assay type: biochemical; details: ATP 10 μM, read-out: IC50 (10uMATP)
T1 construct: purchased Upstate 14-552
T1 sequence (Q06187 whole entry): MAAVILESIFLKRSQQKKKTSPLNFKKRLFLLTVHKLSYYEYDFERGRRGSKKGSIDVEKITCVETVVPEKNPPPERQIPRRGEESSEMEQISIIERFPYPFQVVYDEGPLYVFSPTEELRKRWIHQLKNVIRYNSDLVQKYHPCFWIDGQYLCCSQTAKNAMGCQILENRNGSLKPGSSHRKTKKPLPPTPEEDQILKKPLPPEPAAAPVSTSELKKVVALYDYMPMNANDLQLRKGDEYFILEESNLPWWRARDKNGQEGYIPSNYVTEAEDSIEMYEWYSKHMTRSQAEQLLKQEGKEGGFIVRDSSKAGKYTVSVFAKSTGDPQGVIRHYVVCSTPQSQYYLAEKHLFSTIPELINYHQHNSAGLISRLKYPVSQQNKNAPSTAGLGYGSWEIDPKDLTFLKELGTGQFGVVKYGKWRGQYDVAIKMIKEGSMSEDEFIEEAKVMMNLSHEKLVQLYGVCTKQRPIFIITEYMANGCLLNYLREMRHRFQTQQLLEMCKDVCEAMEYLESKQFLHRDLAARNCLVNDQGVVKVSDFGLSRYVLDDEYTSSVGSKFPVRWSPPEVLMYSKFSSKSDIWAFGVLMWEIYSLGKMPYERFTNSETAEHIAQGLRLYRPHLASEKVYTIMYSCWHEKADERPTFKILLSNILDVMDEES
In short: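 Human BTK activity was measured with final 10 μM ATP and 100 nM polyGAT substrate in pH 7.5 Tris buffer with 10 mM MgCl2, DTT, Triton X-100 and casein.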

BTK (phospho-BTK) in human whole blood, sequence (Q06187 whole entry): as above

Row | IC50 [1] [nM] | IC50 (BTK enzyme) [nM] | SMILES
1 | < 500 | < 10 | Cc1cc(-c2ccnc(Nc3cnn4c3CCC4)n2)ccc1CNC(=O)c1cnc(C(C)(C)C)s1 [Example I-315, 2-tert-butyl-N-[[4-[2-(5,6-dihydro-4H-pyrrolo[1,2-b]pyrazol-3-ylamino)pyrimidin-4-yl]-2-methyl-phenyl]methyl]thiazole-5-carboxamide]
2 | < 500 | < 10 | CC(C)(C)C1CCN(C(=O)NCc2ccc(-c3ccnc(Nc4cnn([C@H]5CCNC5)c4)n3)cc2C(F)(F)F)C1 (stereo partly drawn) [Example I-316, 3-tert-butyl-N-[[4-[2-[[1-[(3S)-pyrrolidin-3-yl]pyrazol-4-yl]amino]pyrimidin-4-yl]-2-(trifluoromethyl)phenyl]methyl]pyrrolidine-1-carboxamide]
3 | < 500 | < 10 | COCCn1cc(Nc2nccc(-c3ccc(CNC(=O)N4CCC(C(C)C)C4)c(C(F)(F)F)c3)n2)cn1 (centres unmarked) [Example I-317, 3-isopropyl-N-[[4-[2-[[1-(2-methoxyethyl)pyrazol-4-yl]amino]pyrimidin-4-yl]-2-(trifluoromethyl)phenyl]methyl]pyrrolidine-1-carboxamide]
4 | < 500 | < 10 | CC(C)(C)C1CCN(C(=O)NCc2ccc(-c3ccnc(Nc4cnn(C5CCNC5)c4)n3)cc2C(F)(F)F)C1 [Example I-318, 3-tert-butyl-N-[8 4-[2-[[1-[(3R)-pyrrolidin-3-yl]pyrazol-4-yl]amino]pyrimidin-4-yl]-2-(trifluoromethyl)phenyl]methyl]pyrrolidine-1-carboxamide]
5 | < 500 | < 10 | COCCc1cc(-c2ccnc(Nc3cnn(C)c3)n2)ccc1CNC(=O)N1CCC(C(C)(C)C)C1 (centres unmarked) [Example I-320, 3-tert-butyl-N-[[2-(2-methoxyethyl)-4-[2-[(1-methylpyrazol-4-yl)amino]pyrimidin-4-yl]phenyl]methyl]pyrrolidine-1-carboxamide]
6 | < 500 | < 10 | Cc1c(Nc2nccc(-c3ccc(CNC(=O)N4CCC(C(C)(C)C)C4)c(CCO)c3)n2)cnn1C (centres unmarked) [Example I-321, 3-tert-butyl-N-[[4-[2-[(1,5-dimethylpyrazol-4-yl)amino]pyrimidin-4-yl]-2-(2-hydroxyethyl)phenyl]methyl]pyrrolidine-1-carboxamide]
7 | < 500 | < 10 | CC(C)(C)C1CCN(C(=O)NCc2ccc(-c3ccnc(Nc4cnn5c4CCC5)n3)cc2CCO)C1 (centres unmarked) [Example I-324, 3-tert-butyl-N-[[4-[2-(5,6-dihydro-4H-pyrrolo[1,2-b]pyrazol-3-ylamino)pyrimidin-4-yl]-2-(2-hydroxyethyl)phenyl]methyl]pyrrolidine-1-carboxamide]

Row | SMILES | IC50 [1] [nM] | IC50 (BTK enzyme) [nM]
8 | COCCc1cc(-c2ccnc(Nc3cnn(C)c3)n2)ccc1CNC(=O)N1CC(OC(C)(C)C)C1 [Example I-319, 3-tert-butoxy-N-[[2-(2-methoxyethyl)-4-[2-[(1-methylpyrazol-4-yl)amino]pyrimidin-4-yl]phenyl]methyl]azetidine-1-carboxamide] | < 500 | < 10
9 | Cc1cc(-c2ccnc(Nc3cnn4c3CCC4)n2)ccc1CNC(=O)N1CC(OC(C)(C)C)C1 [Example I-322, 3-tert-butoxy-N-[[4-[2-(5,6-dihydro-4H-pyrrolo[1,2-b]pyrazol-3-ylamino)pyrimidin-4-yl]-2-methyl-phenyl]methyl]azetidine-1-carboxamide] | < 500 | < 10
10 | COCCc1cc(-c2ccnc(Nc3cnn4c3CCC4)n2)ccc1CNC(=O)N1CC(OC(C)(C)C)C1 [Example I-323, 3-tert-butoxy-N-[[4-[2-(5,6-dihydro-4H-pyrrolo[1,2-b]pyrazol-3-ylamino)pyrimidin-4-yl]-2-(2-methoxyethyl)phenyl]methyl]azetidine-1-carboxamide] | < 500 | < 10
